Measured values reported in patent US7598419B2, “Compounds for modulating cell proliferation” (HSC Research and Development Limited Partnership, priority 2004, dated 2009).

How the values were obtained:
[1] = tested on: primary juvenile myelo-monocytic leukemia cells; assay: Colony assay of primary JMML CD34+ cells in culture; format: cell-based; settings: Homo sapiens, 288 h, colonies at 12 days, FIG. 6
Method: Heparinized bone marrow cells from a JMML patient were layered over Percoll (1.077 gm/ml) (Pharmacia Fine Chemical, Piscataway N.J.) and centrifuged at 400 g at 4° C. for 10 minutes to remove neutrophils and RBCs. Cells were further fractionated and purified on Miltenyi MS columns (Miltenyi Biotec GmbH, Germany) to acquire an early progenitor population of CD34^+ cells. The fractionated BM CD34^+ cells at a density of 1×10^4 cells/ml were cultured in IMDM (OCI, Toronto) containing 0.9% (vol/vol) methylcellulose supplemented with 30% FCS (Cansera Rexdale, ON.) with the indicated concentration of CR4. The culture mixture was plated in 1 ml volumes into 35 mm petri dishes and incubated at 37° C., 5% CO2 in a humidified atmosphere. Colonies consisting of more than 20 cells were counted at 12 days or earlier using an inverted microscope.

[2] = tested on: Z119 acute lymphoblastic leukemia cells; assay: In vitro purging of Z119 acute lymphoblastic leukemia; format: cell-based, human; settings: FIG. 15
Method: For the purging assay, the cells were resuspended in complete medium with or without CR4 as indicated and incubated at 37° C., 5% CO2 for 0-5 hours. Cells were then washed thoroughly with medium to remove the CR4, resuspended and plated in 1 ml volumes, in the absence of exogenous growth factors, into 35 mm petri dishes (Nunc, Gibco) containing alpha MEM (Gibco) plus 20% FCS (Cansera Rexdale, ON.) in 0.9% (vol/vol) methylcellulose (Fluka, Switzerland). Cultures were set at 37° C., 5% CO2 in a humidified atmosphere. Colonies consisting of more than 20 cells were counted at 9 days or earlier using an inverted microscope.

normal bone marrow cells = assay: CFU-GEMM assay: normal bone marrow differentiation in culture; format: cell-based, human
Method: (§1) The CFU-GEMM assay was performed according to Fauser and Messner (1978, Blood, 52(6) 143-8) and Messner and Fausser (1980, Blut, 41(5) 327-33) with some variations. In brief, heparinized bone marrow cells were layered over Percoll (1.077 gm/ml) (Pharmacia Fine Chemical, Piscataway N.J.) and centrifuged at 400 g at 4° C. for 10 minutes to remove neutrophils and RBCs. The fractionated BM cells at 2×10^5 cells/ml were cultured in IMDM (OCI, Toronto) containing 0.9% (vol/vol) methylcellulose supplementd with 30% FCS (Cansera Rexdale, ON.) or normal human plasma, a cocktail of cytokines containing G-CSF (10 ng/ml, Amgen), IL-3 (40 U/ml, Immunex), MGF (50 ng/ml, Immunex), Erythropoietin (2 u/ml, Epprex) or TPO (10 ng/ml, Amgen), 5×10^−5M β-2-mercaptoethanol and the specified concentration of CR4. The culture mixture was plated in 1 ml volumes into 35 mm petri dishes and incubated at 37° C., 5% CO2 in a humidified atmosphere. All cultures were evaluated at 14 days for the number of BFU-E colonies (defined as aggregates of more than 500 hemoglobinized cells or, 3 or more erythroid subcolonies), CFU-GM colonies (defined as granulocyte or monocyte-macrophage cells or both), CFU-Meg colonies (comprising 4 or more megakaryocytes) and CFU-GEMM colonies (a mixed population comprising of all elements).
as §1, with “1243-8)” for “143-8)”, “concentrations” for “concentration”, “CR19.” for “CR4.”, “hemaglobinized” for “hemoglobinized”, “subcolonies) and CFU-C” for “subcolonies), CFU-GM”, “both).” for “both), CFU-Meg colonies (comprising 4 or more megakaryocytes) and CFU-GEMM colonies (a mixed population comprising of all elements).”
as §1, with “1243-8)” for “143-8)”, “variations (British Journal of Haematology, 1992, 80, p 40-48).” for “variations.”, “test compound.” for “CR4.”, “CO2,” for “CO2”, “subcolonies) and CFU-C” for “subcolonies), CFU-GM”, “both).” for “both), CFU-Meg colonies (comprising 4 or more megakaryocytes) and CFU-GEMM colonies (a mixed population comprising of all elements).”

[3] = tested on: cells of the myeloid lineage; settings: in vitro, ex vivo and in vivo; cited from earlier work

## N#C/C(=C\C=C\c1ccc(O)c(O)c1)C(=O)NCc1ccccc1 [CR4, (E,E)-2-(Benzylaminocarbonyl)-3-(3,4-dihydroxystyryl)acrylonitrile]
[1]
  inhibition at 5 µM: 80 to 90%
[2]; 25 μM, 2.5 hours exposure
  killing of Z119 cells after purging: 85%
[2]; 25 μM, five hour exposure
  subsequent Z119 cell growth after purging: complete ablation
[2]; 50 μM, 2.5 hours exposure
  inhibition of Z119 cells after purging: complete inhibition
Normal bone marrow cells; 10 μM, 14 days, FIG. 1
  BFU-E colony formation: some inhibition
  CFU-GM colony numbers: significantly stimulated
Normal bone marrow cells; concentrations equivalent to those inhibiting the cancer cells of the same example
  effect upon normal cells at equivalent concentrations: no effect
Normal bone marrow cells; doses up to 5 μM, colonies at 14 days, FIG. 1
  toxicity upon normal bone marrow: negligible toxicity
Normal bone marrow cells; low nanomolar doses, long term exposure
  normal cell growth and differentiation: unaffected
Normal bone marrow cells; normal cells incubated in the presence of compound
  concentrations until which minimal toxicity was seen in normal cells: 10 to 20 µM
[3]
  promotion of myelopoiesis: capable of promoting myelopoiesis
